Legend:
SARS-CoV-2 Mpro [1] = biological target: T1, SARS-CoV-2 Mpro (Severe acute respiratory syndrome coronavirus 2, UniProt P0DTD1); experiment: biochemical; settings: for inhibition at 2 µM / inhibition at 10 µM / inhibition at 50 µM: read-out: inhibition of SARS-CoV-2 Mpro enzyme activity (inhibition rate)
SARS-CoV-2 Mpro [2] = biological target: T1, SARS-CoV-2 Mpro; assay type: binding; settings: for SPR response units (RUs) in sensorgrams, up to: highest response in SPR sensorgrams; for binding capacity in SPR sensorgrams (in words): Supporting Information

Compound | inhibition at 2 µM (SARS-CoV-2 Mpro [1]) [%] | inhibition at 10 µM (SARS-CoV-2 Mpro [1]) [%] | inhibition at 50 µM (SARS-CoV-2 Mpro [1]) [%] | SPR response units (RUs) in sensorgrams, up to (SARS-CoV-2 Mpro [2]) | other results
Oc1cccc(O)c1O [PYG, pyrogallol] | 20 |  |  |  | reference binding signal (SARS-CoV-2 Mpro [2]; CM5 sensor chip): less than 10%; reference signal (reference binding RUs over binding level RUs) (SARS-CoV-2 Mpro [2]; PEG sensor chip): 64%
O=C1O[C@H]2[C@@H]3OC(=O)c4cc(O)c(O)c(O)c4-c4c(O)c(O)c5oc(=O)c6c(c(O)c(O)c7oc(=O)c4c5c76)-c4c(cc(O)c(O)c4O)C(=O)OC[C@H]3OC(O)[C@@H]2OC(=O)c2cc(O)c(O)c(O)c2-c2c1cc(O)c(O)c2O (mixture of isomers) [PA, punicalagin] | 2 | 59 | 100 |  | 
O=C(O)c1cc(O)c(O)c(O)c1 [GLA, gallic acid] |  |  |  | up to 30 RU | 
O=c1oc2cc(O)ccc2c2ccc(O)cc12 [UA, urolithin A] |  |  |  |  | binding capacity in SPR sensorgrams (in words) (SARS-CoV-2 Mpro [2]): undetectable binding capacity
O=c1c(O)c(-c2ccc(O)c(O)c2)oc2cc(O)cc(O)c12 [quercetin, reference compound] |  |  |  | up to 103 RU | 
O=C(OC[C@H]1O[C@@H](OC(=O)c2cc(O)c(O)c(OC(=O)c3cc(O)c(O)c(O)c3)c2)[C@H](OC(=O)c2cc(O)c(O)c(OC(=O)c3cc(O)c(O)c(O)c3)c2)[C@@H](OC(=O)c2cc(O)c(O)c(OC(=O)c3cc(O)c(O)c(O)c3)c2)[C@@H]1OC(=O)c1cc(O)c(O)c(OC(=O)c2cc(O)c(O)c(O)c2)c1)c1cc(O)c(O)c(OC(=O)c2cc(O)c(O)c(O)c2)c1 [TA, tannic acid] |  |  |  | up to 643 RU | inhibition of SARS-CoV-2 Mpro enzyme activity (inhibition rate) (SARS-CoV-2 Mpro [1]; 2 μM): 13%; inhibition of SARS-CoV-2 Mpro enzyme activity (inhibition rate) (SARS-CoV-2 Mpro [1]; 10 μM): 73%; inhibition of SARS-CoV-2 Mpro enzyme activity (inhibition rate) (SARS-CoV-2 Mpro [1]; 50 μM): 100%
O=c1oc2c(O)c(O)cc3c(=O)oc4c(O)c(O)cc1c4c23 [EA, ellagic acid] | 3 | 28 | 57 |  | 
O=C(OC[C@H]1O[C@@H](OC(=O)c2cc(O)c(O)c(O)c2)[C@H](OC(=O)c2cc(O)c(O)c(O)c2)[C@@H](OC(=O)c2cc(O)c(O)c(O)c2)[C@@H]1OC(=O)c1cc(O)c(O)c(O)c1)c1cc(O)c(O)c(O)c1 [PGG, 1,2,3,4,6-penta-O-galloyl-ß-D-glucose] | 14 | 73 | 100 | ≤ 1186 RU | 
O=c1oc2cc(O)ccc2c2ccccc12 [UB, urolithin B] |  |  |  | < 10 RU | binding capacity in SPR sensorgrams (in words) (SARS-CoV-2 Mpro [2]): weak binding capacity

Reference: paper PMC8491554 (Journal of agricultural and food chemistry, 2021)
